Laboratory results as given in patent US20110288086A1, “POLYCYCLIC QUINAZOLINES, PREPARATION THEREOF, AND USE THEREOF” (priority 2010, published 2011).
In brackets after ≈: the same amount, converted by molar mass. Where a name gives a salt, the structure may show the parent alone.

Tests used:
[1] = test system: A549 human lung cancer cells; test: Tumor cell inhibition ratio, CCK-8 kit, A549; conditions: A549, read-out: Antiproliferative effect (inhibition ratio) A549
Source text: (§3) The inhibitory activities of the compounds on tumor cells in vitro

[2] = test system: Jurkat E6-1 human T-cell lymphoma; test: Tumor cell IC50, CCK-8 kit, Jurkat E6-1; assay type: cell-based; conditions: E6-1 cells
Source text: (§1) The inhibitory activities of the compounds on tumor cells (IC50) in vitro
(§2) The IC50 (IC50, unit: μg/ml) values of the compounds on Hut78 T-Lymphocytic Leukemia cells, Jurkat E6-1 human T-cell lymphoma, PANC-1 human pancreatic cancer cells, A549 human lung cancer cells, K562 human chronicity marrow leukemic cells, Hep3B2. 1-7 human hepatoma carcinoma cells, MDA-MB-435s human breast carcinoma cells, Colo320 human rectal cancer cells, PC-3 human carcinoma of prostate, and HepG2 human hepatoma carcinoma cells were determined using a CCK-8 kit. Erlotinib hydrochloride was used as the positive control drug.

EGFR tyrosine kinase = EGFR tyrosine kinase (Homo sapiens, UniProt P00533); test: EGFR tyrosine kinase inhibition in vitro (Invitrogen EGFR inhibitor screening kit PV3193)
Source text: The inhibitory activities of EGFR tyrosine kinase in vitro
Erlotinib hydrochloride was used as a positive control drug.

[3] = test system: PANC-1 human pancreatic cancer cells; test: Tumor cell inhibition ratio, CCK-8 kit, PANC-1; conditions: PANC-1, read-out: Antiproliferative effect (inhibition ratio) PANC-1
Source text: as §3

[4] = test system: Hut78 T-Lymphocytic Leukemia cells; test: Tumor cell inhibition ratio, CCK-8 kit, Hut78; conditions: Homo sapiens, HuT78, read-out: Antiproliferative effect (inhibition ratio) Hut-78
Source text: as §3

[5] = test system: Colo320 human rectal cancer cells; test: Tumor cell inhibition ratio, CCK-8 kit, Colo320; conditions: COLO 320, read-out: Antiproliferative effect (inhibition ratio) Colo320
Source text: as §3

[6] = test system: PC-3 human carcinoma of prostate; test: Tumor cell inhibition ratio, CCK-8 kit, PC-3; conditions: read-out: Antiproliferative effect (inhibition ratio) PC-3
Source text: as §3

[7] = test system: MDA-MB-435s human breast carcinoma cells; test: Tumor cell IC50, CCK-8 kit, MDA-MB-435s; assay type: cell-based; conditions: 435s cells
Source text: as §1, §2

aurora kinase B = target: T1, aurora kinase B (Homo sapiens, UniProt Q96GD4); test: Aurora kinase B inhibition in vitro (Invitrogen aurora kinase screening kit PV3174); assay type: biochemical
T1 construct: purchased Invitrogen PV3174

[8] = test system: K562 human chronicity marrow leukemic cells; test: Tumor cell inhibition ratio, CCK-8 kit, K562; conditions: K562, read-out: Antiproliferative effect (inhibition ratio) K562
Source text: as §3

[9] = test system: Hep3B2.1-7 human hepatoma carcinoma cells; test: Tumor cell inhibition ratio, CCK-8 kit, Hep3B; conditions: read-out: Antiproliferative effect (inhibition ratio) Hep3B
Source text: as §3

[10] = test system: Hut78 T-Lymphocytic Leukemia cells; test: Tumor cell IC50, CCK-8 kit, Hut78; assay type: cell-based; conditions: Homo sapiens, Hut-78 cells
Source text: as §1, §2

[11] = test system: A549 human lung cancer cells; test: Tumor cell IC50, CCK-8 kit, A549; assay type: cell-based
Source text: as §1, §2

[12] = test system: K562 human chronicity marrow leukemic cells; test: Tumor cell IC50, CCK-8 kit, K562; assay type: cell-based
Source text: as §1, §2

[13] = test system: PANC-1 human pancreatic cancer cells; test: Tumor cell IC50, CCK-8 kit, PANC-1; assay type: cell-based; conditions: PANC-1 cells
Source text: as §1, §2

[14] = test system: PC-3 human carcinoma of prostate; test: Tumor cell IC50, CCK-8 kit, PC-3; assay type: cell-based; conditions: PC-3 cells
Source text: as §1, §2

[15] = test system: Hep3B2. 1-7 human hepatoma carcinoma cells; test: Tumor cell IC50, CCK-8 kit, Hep3B; assay type: cell-based
Source text: as §1, §2

[16] = test system: Jurkat E6-1 human T-cell lymphoma; test: Tumor cell inhibition ratio, CCK-8 kit, Jurkat E6-1; conditions: Jurkat E6.1, read-out: Antiproliferative effect (inhibition ratio) E6-1
Source text: as §3

[17] = test system: MDA-MB-435s human breast carcinoma cells; test: Tumor cell inhibition ratio, CCK-8 kit, MDA-MB-435s; conditions: read-out: Antiproliferative effect (inhibition ratio) 435s
Source text: as §3

[18] = test system: Colo320 human rectal cancer cells; test: Tumor cell IC50, CCK-8 kit, Colo320; assay type: cell-based; conditions: COLO 320
Source text: as §1, §2

Sequence of EGFR tyrosine kinase (P00533 25-1210): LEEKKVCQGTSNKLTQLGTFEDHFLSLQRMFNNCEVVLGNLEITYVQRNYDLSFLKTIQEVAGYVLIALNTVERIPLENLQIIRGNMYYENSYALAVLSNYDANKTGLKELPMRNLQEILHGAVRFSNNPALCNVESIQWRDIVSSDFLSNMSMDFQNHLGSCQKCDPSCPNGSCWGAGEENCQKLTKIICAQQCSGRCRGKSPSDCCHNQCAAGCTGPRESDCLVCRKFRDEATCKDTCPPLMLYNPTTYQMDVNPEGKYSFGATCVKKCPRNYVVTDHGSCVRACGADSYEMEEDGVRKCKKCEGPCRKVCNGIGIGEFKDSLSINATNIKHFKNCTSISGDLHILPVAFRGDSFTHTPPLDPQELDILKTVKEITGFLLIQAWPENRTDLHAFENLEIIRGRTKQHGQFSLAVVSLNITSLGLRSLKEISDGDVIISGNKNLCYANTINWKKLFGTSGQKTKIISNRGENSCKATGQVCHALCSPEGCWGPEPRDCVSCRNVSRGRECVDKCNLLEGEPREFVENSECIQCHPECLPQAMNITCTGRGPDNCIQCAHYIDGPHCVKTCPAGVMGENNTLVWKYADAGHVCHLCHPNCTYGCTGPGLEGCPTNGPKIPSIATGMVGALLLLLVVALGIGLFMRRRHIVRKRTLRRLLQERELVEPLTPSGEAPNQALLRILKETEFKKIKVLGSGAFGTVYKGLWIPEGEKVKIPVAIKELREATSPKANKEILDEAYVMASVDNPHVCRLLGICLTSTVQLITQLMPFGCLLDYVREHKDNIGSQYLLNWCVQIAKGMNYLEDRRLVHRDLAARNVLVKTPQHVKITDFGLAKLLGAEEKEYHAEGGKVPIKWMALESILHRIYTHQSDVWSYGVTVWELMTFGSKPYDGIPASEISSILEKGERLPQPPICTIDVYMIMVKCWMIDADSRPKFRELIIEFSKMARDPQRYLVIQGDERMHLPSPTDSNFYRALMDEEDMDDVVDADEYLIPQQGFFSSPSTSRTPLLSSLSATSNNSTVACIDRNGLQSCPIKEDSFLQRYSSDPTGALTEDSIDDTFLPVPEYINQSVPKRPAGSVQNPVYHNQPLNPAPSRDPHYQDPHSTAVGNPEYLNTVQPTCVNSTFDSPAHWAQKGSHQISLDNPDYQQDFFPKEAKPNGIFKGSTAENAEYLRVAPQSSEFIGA
T1 sequence (Q96GD4 whole entry): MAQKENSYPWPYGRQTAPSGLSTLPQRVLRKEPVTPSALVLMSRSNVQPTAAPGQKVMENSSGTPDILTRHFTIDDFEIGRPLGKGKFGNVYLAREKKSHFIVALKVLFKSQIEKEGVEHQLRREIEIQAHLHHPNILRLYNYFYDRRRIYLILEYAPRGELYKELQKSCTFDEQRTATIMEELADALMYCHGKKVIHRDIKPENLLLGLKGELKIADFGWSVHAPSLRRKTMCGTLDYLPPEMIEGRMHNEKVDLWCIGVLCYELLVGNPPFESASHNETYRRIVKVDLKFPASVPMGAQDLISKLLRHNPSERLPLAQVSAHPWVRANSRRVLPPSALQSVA

| IC50 [2] [µg/mL] | The inhibition ratio of the compound on EGFR(%) (EGFR tyrosine kinase; 40 μM) | The inhibition ratio of the compound on EGFR(%) (EGFR tyrosine kinase; 200 μM) | IC50 [7] [µg/mL] | The inhibition ratio of the compound on Aurora B(%) (aurora kinase B; 40 μM) | The inhibition ratio of the compound on Aurora B(%) (aurora kinase B; 200 μM) | Structure (SMILES) | inhibition at 10 µM [1] [%] | inhibition at 100 µM [1] [%] | inhibition at 10 µM [3] [%] | inhibition at 100 µM [3] [%] | inhibition at 10 µM [4] [%] | inhibition at 100 µM [4] [%] | inhibition at 10 µM [5] [%] | inhibition at 100 µM [5] [%] | inhibition at 10 µM [6] [%] | inhibition at 100 µM [6] [%] | inhibition at 10 µM [8] [%] | inhibition at 100 µM [8] [%] | inhibition at 10 µM [9] [%] | inhibition at 100 µM [9] [%] | other results |
| --- | --- | --- | --- | --- | --- | --- | --- | --- | --- | --- | --- | --- | --- | --- | --- | --- | --- | --- | --- | --- | --- |
| 9.86 (≈ 23.2 µM) | 53.1 | 94.3 | 53.4 (≈ 126 µM) | 52.5 | 90.3 | COc1cc2c(cc1OCCCN1CCCC1)C1=Nc3cccc(Cl)c3CN1C=N2 [Compound V-24, 9-chloro-3-methoxy-2-(3-(pyrrolidine-1-yl)propoxy)-8H-quinazolino[4,3-b]quinazoline] | 50.7 | 98.2 | 42.4 | 99.9 | 44.3 | 99.6 | 52.7 | 99.4 | 53.5 | 98.9 | 53.6 | 93.8 | 60.3 | 94.6 | IC50 [10]: 2.14 µg/mL (≈ 5.04 µM); IC50 [11]: 23.3 µg/mL (≈ 54.8 µM); IC50 [12]: 10.3 µg/mL (≈ 24.3 µM); IC50 [13]: 1.94 µg/mL (≈ 4.57 µM); IC50 [14]: 3.41 µg/mL (≈ 8.02 µM); IC50 [15]: 43.1 µg/mL (≈ 101 µM); inhibition at 10 µM [16]: 46.6%; inhibition at 100 µM [16]: 87.3%; inhibition at 10 µM [17]: 48.9%; inhibition at 100 µM [17]: 66.2%; IC50 [18]: 4.76 µg/mL (≈ 11.2 µM) |
| 8.11 (≈ 20.4 µM) | 52.3 | 95.6 | 27.6 (≈ 69.5 µM) | 32.3 | 96.4 | COCCOc1cc2c(cc1OCCOC)C1=Nc3cccc(O)c3CN1C=N2 [Compound V-8, 9-hydroxy-2,3-bis(2-methoxyethoxy)-8H-quinazolino[4,3-b]quinazoline] | 52.8 | 80 | 41.5 | 89.8 | 35.6 | 75.9 | 64.5 | 94.8 | 45.2 | 94 | 52.4 | 92.2 | 52.4 | 87.3 | IC50 [10]: 53.1 µg/mL (≈ 134 µM); IC50 [11]: 30 µg/mL (≈ 75.5 µM); IC50 [12]: 63.1 µg/mL (≈ 159 µM); IC50 [13]: 21.2 µg/mL (≈ 53.3 µM); IC50 [14]: 9.9 µg/mL (≈ 24.9 µM); IC50 [15]: 33.1 µg/mL (≈ 83.4 µM); inhibition at 10 µM [16]: 44%; inhibition at 100 µM [16]: 85.4%; inhibition at 10 µM [17]: 55%; inhibition at 100 µM [17]: 93.7%; IC50 [18]: 29.8 µg/mL (≈ 74.9 µM) |
| 12.5 (≈ 30.7 µM) | 53.4 | 95.7 | 36.5 (≈ 90.1 µM) | 52.4 | 95.7 | C#Cc1ccc2c(c1)N=C1c3cc(OCCOC)c(OCCOC)cc3N=CN1C2 [Compound V-19, 11-ethynyl-2,3-bis(2-methoxyethoxy)-8H-quinazolino[4,3-b]quinazoline] | 48.6 | 90.7 | 49.7 | 85.9 | 33 | 63.8 | 37 | 89.6 | 62.2 | 92.7 | 45.4 | 81.1 | 53.5 | 85 | IC50 [10]: 47.4 µg/mL (≈ 117 µM); IC50 [11]: 50 µg/mL (≈ 123 µM); IC50 [12]: 31.1 µg/mL (≈ 76.7 µM); IC50 [13]: 27.3 µg/mL (≈ 67.4 µM); IC50 [14]: 15.3 µg/mL (≈ 37.8 µM); IC50 [15]: 9.32 µg/mL (≈ 23 µM); inhibition at 10 µM [16]: 55.2%; inhibition at 100 µM [16]: 91.1%; inhibition at 10 µM [17]: 55.8%; inhibition at 100 µM [17]: 91.6%; IC50 [18]: 10 µg/mL (≈ 24.7 µM) |
| 39.9 (≈ 90.9 µM) | 56.4 | 85.6 | 6.79 (≈ 15.5 µM) | 53.5 | 96.7 | COCCOc1cc2c(cc1OCCOC)C1=Nc3cccc(NC(C)=O)c3CN1C=N2 [Compound V-11, N-{2,3-bis(2-methoxyethoxy)-8H-quinazolino[4,3-b]quinazoline}acetamide] | 63.1 | 99.2 | 57.9 | 91.3 | 31 | 72.8 | 41.6 | 96.3 | 55.1 | 89.7 | 50.5 | 86 | 57.1 | 82.8 | IC50 [10]: 26.8 µg/mL (≈ 61.1 µM); IC50 [11]: 4.64 µg/mL (≈ 10.6 µM); IC50 [12]: 40.6 µg/mL (≈ 92.6 µM); IC50 [13]: 6.72 µg/mL (≈ 15.3 µM); IC50 [14]: 36.8 µg/mL (≈ 83.9 µM); IC50 [15]: 26.1 µg/mL (≈ 59.5 µM); inhibition at 10 µM [16]: 41.6%; inhibition at 100 µM [16]: 90.8%; inhibition at 10 µM [17]: 41%; inhibition at 100 µM [17]: 89.5%; IC50 [18]: 34.6 µg/mL (≈ 78.8 µM) |
| 10 (≈ 22.7 µM) | 64.4 | 98.7 | 16.3 (≈ 37 µM) | 45.2 | 78.7 | COc1cc2c(cc1OCCCN1CCOCC1)C1=Nc3cc(Cl)ccc3CN1C=N2 [Compound V-28, 4-(3-((11-chloro-3-methoxy-8H-quinazolino[4,3-b]quinazoline-2-yl)oxy)propyl)morpholine] | 53.7 | 97.5 | 51.7 | 95.6 | 59.2 | 90.5 | 16.3 | 63.3 | 56.4 | 88 | 64.6 | 99.9 | 40.1 | 92.8 | IC50 [10]: 16.7 µg/mL (≈ 37.9 µM); IC50 [11]: 6.42 µg/mL (≈ 14.6 µM); IC50 [12]: 7.84 µg/mL (≈ 17.8 µM); IC50 [13]: 18.8 µg/mL (≈ 42.6 µM); IC50 [14]: 31.4 µg/mL (≈ 71.3 µM); IC50 [15]: 36.8 µg/mL (≈ 83.3 µM); inhibition at 10 µM [16]: 40.4%; inhibition at 100 µM [16]: 95.4%; inhibition at 10 µM [17]: 54.9%; inhibition at 100 µM [17]: 90.7%; IC50 [18]: 59.7 µg/mL (≈ 135 µM) |
|  | 57.6 | 91.5 |  | 47.6 | 88.6 | COCCOc1cc2c(cc1OCCOC)C1=Nc3cccc(Cl)c3CN1C=N2.Cl [Compound V-1, 9-chloro-2,3-bis(2-methoxyethoxy)-8H-quinazolino[4,3-b]quinazoline hydrochloride monohydrate] | 40.5 | 81.4 | 35.7 | 78.1 | 16.1 | 64.5 | 55.1 | 81 | 51.6 | 62.4 | 40.7 | 87 | 50.4 | 89.3 | inhibition at 10 µM [16]: 55%; inhibition at 100 µM [16]: 81.7%; inhibition at 10 µM [17]: 60.9%; inhibition at 100 µM [17]: 91.2% |

| Structure (SMILES) | IC50 [2] [µg/mL] | The inhibition ratio of the compound on EGFR(%) (EGFR tyrosine kinase; 40 μM) | The inhibition ratio of the compound on EGFR(%) (EGFR tyrosine kinase; 200 μM) | IC50 [7] [µg/mL] | The inhibition ratio of the compound on Aurora B(%) (aurora kinase B; 40 μM) | The inhibition ratio of the compound on Aurora B(%) (aurora kinase B; 200 μM) | inhibition at 10 µM [1] [%] | inhibition at 100 µM [1] [%] | inhibition at 10 µM [3] [%] | inhibition at 100 µM [3] [%] | inhibition at 10 µM [4] [%] | inhibition at 100 µM [4] [%] | inhibition at 10 µM [5] [%] | inhibition at 100 µM [5] [%] | inhibition at 10 µM [6] [%] | inhibition at 100 µM [6] [%] | inhibition at 10 µM [8] [%] | inhibition at 100 µM [8] [%] | inhibition at 10 µM [9] [%] | inhibition at 100 µM [9] [%] | other results |
| --- | --- | --- | --- | --- | --- | --- | --- | --- | --- | --- | --- | --- | --- | --- | --- | --- | --- | --- | --- | --- | --- |
| C#Cc1cccc(Nc2ncnc3cc(OCCOC)c(OCCOC)cc23)c1 [Erlotinib hydrochloride, reference compound] | 35.6 |  |  | 13.1 |  |  |  |  |  |  |  |  |  |  |  |  |  |  |  |  | IC50 [10]: 43.2 µg/mL; IC50 [11]: 19.3 µg/mL; IC50 [12]: 39.9 µg/mL; IC50 [13]: 32.5 µg/mL; IC50 [14]: 54.2 µg/mL; IC50 [15]: 62.3 µg/mL; IC50 [18]: 40.4 µg/mL |
